According to ChEMBL document CHEMBL1154953, “3-Aryl-4-(arylhydrazono)-1H-pyrazol-5-ones: Highly ligand efficient and potent inhibitors of GSK3beta” (Bioorg Med Chem Lett, 2010):

Legend:
[1] = target: Glycogen synthase kinase-3 beta (Homo sapiens, UniProt P49841)
Description: Inhibition of GSK3-beta assessed as NADH level after 10 mins by pyruvate kinase/lactate dehydrogenase coupled spectrophotometric assay

[2] = target: Tyrosine-protein kinase JAK2 (Homo sapiens, UniProt O60674); experiment: Inhibition of JAK2
[3] = target: Hepatocyte growth factor receptor (Homo sapiens, UniProt P08581)
[4] = target: Mitogen-activated protein kinase 10 (Homo sapiens, UniProt P53779); experiment: Inhibition of JNK3
[5] = target: Rho-associated protein kinase 1 (Homo sapiens, UniProt Q13464); experiment: Inhibition of ROCK1
[6] = target: Proto-oncogene tyrosine-protein kinase Src (Homo sapiens, UniProt P12931); experiment: Inhibition of SRC
[7] = target: Serine/threonine-protein kinase PLK1 (Homo sapiens, UniProt P53350); experiment: Inhibition of PLK1
[8] = target: T1, Receptor-type tyrosine-protein kinase FLT3 (Homo sapiens, UniProt P36888); experiment: Inhibition of FLT3
T1 sequence (P36888 whole entry): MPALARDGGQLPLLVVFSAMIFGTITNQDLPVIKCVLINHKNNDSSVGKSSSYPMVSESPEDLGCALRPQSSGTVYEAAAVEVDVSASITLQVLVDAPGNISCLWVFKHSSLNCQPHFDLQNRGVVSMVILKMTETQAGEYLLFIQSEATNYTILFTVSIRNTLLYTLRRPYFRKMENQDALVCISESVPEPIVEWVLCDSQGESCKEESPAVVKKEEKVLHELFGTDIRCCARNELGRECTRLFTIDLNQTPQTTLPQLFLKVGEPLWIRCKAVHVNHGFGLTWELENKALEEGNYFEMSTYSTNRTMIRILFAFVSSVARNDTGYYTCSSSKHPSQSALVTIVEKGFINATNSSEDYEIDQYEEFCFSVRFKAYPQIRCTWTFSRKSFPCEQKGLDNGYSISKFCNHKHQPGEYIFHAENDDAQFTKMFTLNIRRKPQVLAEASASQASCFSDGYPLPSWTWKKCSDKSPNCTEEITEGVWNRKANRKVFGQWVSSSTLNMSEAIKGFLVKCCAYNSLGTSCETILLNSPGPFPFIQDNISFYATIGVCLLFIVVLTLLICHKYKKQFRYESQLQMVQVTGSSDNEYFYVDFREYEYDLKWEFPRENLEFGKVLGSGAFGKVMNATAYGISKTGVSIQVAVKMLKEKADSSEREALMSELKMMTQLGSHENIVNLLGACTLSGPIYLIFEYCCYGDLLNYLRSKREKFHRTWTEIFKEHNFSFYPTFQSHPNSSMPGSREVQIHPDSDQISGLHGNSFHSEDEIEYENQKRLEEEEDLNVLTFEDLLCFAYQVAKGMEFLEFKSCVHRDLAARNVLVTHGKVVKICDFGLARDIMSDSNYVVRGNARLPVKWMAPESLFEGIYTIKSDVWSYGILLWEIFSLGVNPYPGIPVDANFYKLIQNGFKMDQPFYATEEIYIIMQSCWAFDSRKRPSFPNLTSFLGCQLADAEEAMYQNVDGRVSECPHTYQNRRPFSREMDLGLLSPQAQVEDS

[9] = target: Cyclin-dependent kinase 2 (Homo sapiens, UniProt P24941)
[10] = target: Vascular endothelial growth factor receptor 2 (Homo sapiens, UniProt P35968); experiment: Inhibition of KDR
[11] = target: T2, Interleukin-1 receptor-associated kinase 4 (Homo sapiens, UniProt Q9NWZ3); experiment: Inhibition of IRAK4
T2 sequence (Q9NWZ3 whole entry): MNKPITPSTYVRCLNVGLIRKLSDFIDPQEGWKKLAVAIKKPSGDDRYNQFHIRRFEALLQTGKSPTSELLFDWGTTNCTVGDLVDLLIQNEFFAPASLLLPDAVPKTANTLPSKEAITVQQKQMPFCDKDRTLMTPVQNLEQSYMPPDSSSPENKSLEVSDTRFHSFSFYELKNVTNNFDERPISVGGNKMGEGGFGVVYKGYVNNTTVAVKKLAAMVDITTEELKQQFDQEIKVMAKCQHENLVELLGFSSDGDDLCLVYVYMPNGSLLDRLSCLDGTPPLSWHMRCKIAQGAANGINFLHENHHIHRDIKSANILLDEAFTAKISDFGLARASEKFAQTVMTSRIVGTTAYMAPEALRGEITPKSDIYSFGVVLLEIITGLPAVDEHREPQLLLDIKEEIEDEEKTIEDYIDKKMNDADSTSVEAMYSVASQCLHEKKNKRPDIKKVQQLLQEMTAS

[12] = Inhibition of PKA
[13] = target: Phosphatidylinositol 4,5-bisphosphate 3-kinase catalytic subunit gamma isoform (Homo sapiens, UniProt P48736); experiment: Inhibition of PI3Kgamma
[14] = target: Tyrosine-protein kinase SYK (Homo sapiens, UniProt P43405)

Sequence of Glycogen synthase kinase-3 beta (P49841 whole entry): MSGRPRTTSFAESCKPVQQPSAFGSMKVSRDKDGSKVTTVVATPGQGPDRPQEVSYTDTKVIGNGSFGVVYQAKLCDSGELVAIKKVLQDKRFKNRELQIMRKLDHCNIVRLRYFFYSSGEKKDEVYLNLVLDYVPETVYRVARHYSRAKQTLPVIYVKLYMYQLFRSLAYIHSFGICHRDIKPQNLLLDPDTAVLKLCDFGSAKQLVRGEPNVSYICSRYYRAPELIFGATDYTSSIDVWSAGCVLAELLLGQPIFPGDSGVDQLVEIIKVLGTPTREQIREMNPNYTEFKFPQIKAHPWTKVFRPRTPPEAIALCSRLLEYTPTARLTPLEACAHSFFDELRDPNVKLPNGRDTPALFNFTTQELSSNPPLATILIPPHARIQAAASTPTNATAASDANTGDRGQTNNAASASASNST
Sequence of Tyrosine-protein kinase JAK2 (O60674 whole entry): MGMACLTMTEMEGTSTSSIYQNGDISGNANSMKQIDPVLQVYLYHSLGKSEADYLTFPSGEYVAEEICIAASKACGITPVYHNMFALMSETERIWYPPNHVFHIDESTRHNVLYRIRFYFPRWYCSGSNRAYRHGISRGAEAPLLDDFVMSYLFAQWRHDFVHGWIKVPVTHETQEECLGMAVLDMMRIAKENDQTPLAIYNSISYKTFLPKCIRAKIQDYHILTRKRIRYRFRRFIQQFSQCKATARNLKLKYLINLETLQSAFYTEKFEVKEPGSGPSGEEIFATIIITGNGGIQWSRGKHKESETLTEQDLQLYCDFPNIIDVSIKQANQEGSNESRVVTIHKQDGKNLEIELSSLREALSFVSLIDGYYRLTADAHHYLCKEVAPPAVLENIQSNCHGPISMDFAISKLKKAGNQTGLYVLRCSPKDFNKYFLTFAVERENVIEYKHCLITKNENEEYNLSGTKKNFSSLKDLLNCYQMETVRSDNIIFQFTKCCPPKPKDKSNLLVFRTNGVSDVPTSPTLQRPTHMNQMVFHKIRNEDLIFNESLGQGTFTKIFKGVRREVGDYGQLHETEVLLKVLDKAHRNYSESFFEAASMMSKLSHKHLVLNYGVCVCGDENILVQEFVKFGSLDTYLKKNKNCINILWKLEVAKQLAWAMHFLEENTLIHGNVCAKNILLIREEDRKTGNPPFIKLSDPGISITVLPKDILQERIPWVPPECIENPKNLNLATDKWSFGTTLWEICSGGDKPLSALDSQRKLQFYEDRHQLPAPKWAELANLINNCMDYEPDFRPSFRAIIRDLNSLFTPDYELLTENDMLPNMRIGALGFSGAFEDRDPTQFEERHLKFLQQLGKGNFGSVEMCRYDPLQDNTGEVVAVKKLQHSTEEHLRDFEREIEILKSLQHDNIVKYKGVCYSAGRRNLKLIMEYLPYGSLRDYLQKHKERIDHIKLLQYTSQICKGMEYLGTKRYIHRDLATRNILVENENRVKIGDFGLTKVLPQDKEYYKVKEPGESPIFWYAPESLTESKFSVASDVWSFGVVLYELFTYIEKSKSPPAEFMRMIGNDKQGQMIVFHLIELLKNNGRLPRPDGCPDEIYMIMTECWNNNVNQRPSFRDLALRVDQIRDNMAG
Sequence of Serine/threonine-protein kinase PLK1 (P53350 whole entry): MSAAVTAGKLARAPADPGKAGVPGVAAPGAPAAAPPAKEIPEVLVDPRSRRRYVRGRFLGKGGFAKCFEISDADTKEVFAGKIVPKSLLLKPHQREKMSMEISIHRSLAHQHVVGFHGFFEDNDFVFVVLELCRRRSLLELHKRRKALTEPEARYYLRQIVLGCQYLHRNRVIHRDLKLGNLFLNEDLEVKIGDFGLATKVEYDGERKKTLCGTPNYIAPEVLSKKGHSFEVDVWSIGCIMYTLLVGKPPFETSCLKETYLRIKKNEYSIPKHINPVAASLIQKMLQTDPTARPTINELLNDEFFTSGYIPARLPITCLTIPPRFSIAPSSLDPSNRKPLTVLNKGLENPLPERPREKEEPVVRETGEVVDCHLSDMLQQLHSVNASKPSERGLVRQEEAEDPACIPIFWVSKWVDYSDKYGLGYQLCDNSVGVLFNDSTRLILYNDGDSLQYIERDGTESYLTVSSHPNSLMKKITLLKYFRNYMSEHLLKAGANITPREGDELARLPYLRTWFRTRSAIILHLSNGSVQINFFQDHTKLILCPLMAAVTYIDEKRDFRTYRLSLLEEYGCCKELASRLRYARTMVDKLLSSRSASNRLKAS
Sequence of Proto-oncogene tyrosine-protein kinase Src (P12931 2-536 limits assumed): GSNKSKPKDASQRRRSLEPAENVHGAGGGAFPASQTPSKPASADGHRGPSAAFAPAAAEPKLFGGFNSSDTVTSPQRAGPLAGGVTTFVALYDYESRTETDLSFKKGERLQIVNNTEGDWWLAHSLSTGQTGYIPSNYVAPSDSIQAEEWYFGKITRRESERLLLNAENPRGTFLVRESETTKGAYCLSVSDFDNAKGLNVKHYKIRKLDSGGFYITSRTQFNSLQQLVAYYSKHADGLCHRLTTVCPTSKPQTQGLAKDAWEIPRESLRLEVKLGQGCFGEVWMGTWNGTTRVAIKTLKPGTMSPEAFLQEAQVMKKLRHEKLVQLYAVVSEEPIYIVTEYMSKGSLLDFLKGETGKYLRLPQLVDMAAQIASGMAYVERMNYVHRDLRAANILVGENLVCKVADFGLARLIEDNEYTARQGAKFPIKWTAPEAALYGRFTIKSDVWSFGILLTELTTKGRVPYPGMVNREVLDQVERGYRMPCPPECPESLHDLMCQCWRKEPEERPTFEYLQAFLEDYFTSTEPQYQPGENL
Sequence of Rho-associated protein kinase 1 (Q13464 whole entry): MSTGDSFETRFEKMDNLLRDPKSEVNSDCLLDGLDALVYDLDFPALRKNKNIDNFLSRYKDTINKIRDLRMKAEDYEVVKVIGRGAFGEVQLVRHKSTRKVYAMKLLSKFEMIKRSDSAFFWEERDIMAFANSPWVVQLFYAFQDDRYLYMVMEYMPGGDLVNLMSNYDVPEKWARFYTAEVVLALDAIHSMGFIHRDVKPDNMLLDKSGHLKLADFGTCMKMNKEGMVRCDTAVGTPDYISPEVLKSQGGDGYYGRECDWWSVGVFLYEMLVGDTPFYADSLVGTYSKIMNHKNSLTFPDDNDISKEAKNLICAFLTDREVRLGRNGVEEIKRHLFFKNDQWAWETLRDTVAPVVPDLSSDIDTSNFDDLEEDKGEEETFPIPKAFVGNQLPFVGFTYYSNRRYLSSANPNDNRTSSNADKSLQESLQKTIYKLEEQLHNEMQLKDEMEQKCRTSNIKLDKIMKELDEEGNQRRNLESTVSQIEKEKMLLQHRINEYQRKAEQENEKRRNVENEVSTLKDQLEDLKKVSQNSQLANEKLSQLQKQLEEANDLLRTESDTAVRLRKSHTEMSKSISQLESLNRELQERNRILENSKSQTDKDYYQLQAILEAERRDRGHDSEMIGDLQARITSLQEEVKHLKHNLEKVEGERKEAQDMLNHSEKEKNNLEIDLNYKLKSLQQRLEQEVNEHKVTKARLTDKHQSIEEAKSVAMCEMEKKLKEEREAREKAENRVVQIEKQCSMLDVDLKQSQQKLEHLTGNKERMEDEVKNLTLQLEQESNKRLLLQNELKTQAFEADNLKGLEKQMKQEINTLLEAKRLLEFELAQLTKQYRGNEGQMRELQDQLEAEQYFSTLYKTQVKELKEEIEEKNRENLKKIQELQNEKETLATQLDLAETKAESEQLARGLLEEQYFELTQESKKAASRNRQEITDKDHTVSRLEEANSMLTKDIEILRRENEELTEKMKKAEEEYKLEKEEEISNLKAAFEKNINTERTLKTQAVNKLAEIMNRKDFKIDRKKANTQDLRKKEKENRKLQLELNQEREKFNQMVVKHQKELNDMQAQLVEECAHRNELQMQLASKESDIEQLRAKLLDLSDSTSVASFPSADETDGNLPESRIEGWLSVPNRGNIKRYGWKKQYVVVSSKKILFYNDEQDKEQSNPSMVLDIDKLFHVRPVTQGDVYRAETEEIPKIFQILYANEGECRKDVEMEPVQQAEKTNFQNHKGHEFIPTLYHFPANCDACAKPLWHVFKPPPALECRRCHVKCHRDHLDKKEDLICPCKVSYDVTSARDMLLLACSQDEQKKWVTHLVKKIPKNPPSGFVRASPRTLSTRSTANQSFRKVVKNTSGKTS
Sequence of Mitogen-activated protein kinase 10 (P53779 whole entry): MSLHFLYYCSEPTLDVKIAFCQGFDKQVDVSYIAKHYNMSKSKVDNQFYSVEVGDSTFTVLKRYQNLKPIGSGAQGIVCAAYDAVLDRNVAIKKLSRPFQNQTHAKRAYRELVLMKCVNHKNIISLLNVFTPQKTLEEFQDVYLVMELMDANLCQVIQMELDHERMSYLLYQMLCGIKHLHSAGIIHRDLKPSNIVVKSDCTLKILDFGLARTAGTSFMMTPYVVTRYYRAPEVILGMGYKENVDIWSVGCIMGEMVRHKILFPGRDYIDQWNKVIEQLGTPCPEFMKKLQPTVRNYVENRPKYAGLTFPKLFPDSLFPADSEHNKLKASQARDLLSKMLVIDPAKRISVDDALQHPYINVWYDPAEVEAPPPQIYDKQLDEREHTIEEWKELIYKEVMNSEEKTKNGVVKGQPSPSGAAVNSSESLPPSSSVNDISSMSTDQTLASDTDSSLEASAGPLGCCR

Structure (SMILES) | Ki [1] [nM] | further results
COc1ccncc1C1=NNC(=O)/C1=N\Nc1ccncc1 | 16 | 
CC1=NNC(=O)/C1=N\Nc1ccccc1Cl | 460 | 
COc1cccc(C2=NNC(=O)/C2=N\Nc2ccc(Cl)cc2)c1 | 9 | 
COc1ccc(C2=NNC(=O)/C2=N\Nc2cccc(Cl)c2)cc1 | 1.9 | 
COc1ccc(C2=NNC(=O)/C2=N\Nc2cccnc2)cc1 | 2 | Ki [2]: > 4000 nM; Ki [3]: > 4000 nM; Ki [4]: > 4000 nM; Ki [5]: > 4000 nM; Ki [6]: > 4000 nM; Ki [7]: > 4000 nM; Ki [8]: 130 nM; Ki [9]: 62 nM; Ki [10]: 3400 nM; Ki [11]: 1500 nM; Ki [12]: > 4000 nM
COc1cccc(N/N=C2\C(=O)NN=C2c2cnccc2OC)c1 | 3.7 | 
COc1ccc(N/N=C2\C(=O)NN=C2c2cnccc2OC)cc1 | 2 | 
COc1cccc(C2=NNC(=O)/C2=N\Nc2ccccc2)c1 | 39 | 
COc1cccc(C2=NNC(=O)/C2=N\Nc2cccc(Cl)c2)c1 | 8 | 
CC(C)C1=NNC(=O)/C1=N\Nc1ccccc1Cl | > 3700 | 
O=C1NN=C(c2ccccn2)/C1=N/Nc1ccccc1Cl | 650 | 
O=C1NN=C(c2cccnc2)/C1=N/Nc1ccccc1Cl | 200 | 
O=C1NN=C(c2ccncc2)/C1=N/Nc1ccccc1Cl | 250 | 
O=C1NN=C(c2ccccc2)/C1=N/Nc1ccccc1Cl | 720 | 
COc1cccc(C2=NNC(=O)/C2=N\Nc2ccc(N(C)C)cc2)c1 | 9 | 
COc1cccc(C2=NNC(=O)/C2=N\Nc2ccc(N3CCOCC3)cc2)c1 | 59 | 
COc1ccc(C2=NNC(=O)/C2=N\Nc2ccc(Cl)cc2)cc1 | 2 | 
O=C1NN=C/C1=N/Nc1ccccc1Cl | 1490 | 
COc1ccc(C2=NNC(=O)/C2=N\Nc2cccc(OC)c2)cc1 | 0.8 | Ki [2]: > 1600 nM; Ki [3]: > 4000 nM; Ki [4]: > 4000 nM; Ki [5]: > 4000 nM; Ki [6]: > 4000 nM; Ki [7]: > 4000 nM; Ki [8]: 66 nM; Ki [9]: 95 nM; Ki [10]: 1800 nM; Ki [12]: > 4000 nM
COc1cccc(C2=NNC(=O)/C2=N\Nc2ccccc2Cl)c1 | 850 | 
COc1ccc(C2=NNC(=O)/C2=N\Nc2ccc(C#N)cc2)cc1 | < 2 | 

Structure (SMILES) | Ki [1] [nM] | further results
COc1ccc(C2=NNC(=O)/C2=N\Nc2ccncc2)cc1 | 14 | 
COc1ccc(C2=NNC(=O)/C2=N\Nc2ccc(N(C)C)cc2)cc1 | 110 | 
CCN(CC)c1ccc(N/N=C2\C(=O)NN=C2c2ccc(OC)cc2)cc1 | 16 | 
COc1ccncc1C1=NNC(=O)/C1=N\Nc1ccc(C#N)cc1 | 8.3 | 
COc1ccncc1C1=NNC(=O)/C1=N\Nc1cccnc1 | 23 | 
COc1ccccc1N/N=C1\C(=O)NN=C1c1ccccc1 | > 4000 | 
COc1cccc(N/N=C2\C(=O)NN=C2c2ccccc2)c1 | 35 | 
COc1ccc(C2=NNC(=O)/C2=N\Nc2ccccc2Cl)cc1OC | 44 | 
O=C1NN=C(c2ccccc2)/C1=N/Nc1ccccc1 | 99 | 
O=C1NN=C(c2ccccc2)/C1=N/Nc1cccc(Cl)c1 | 120 | 
O=C1NN=C(c2ccccc2)/C1=N/Nc1ccc(Cl)cc1 | 23 | 
COc1ccncc1C1=NNC(=O)/C1=N\Nc1ccc(C(=O)O)cc1 | 7.7 | 
COc1ccncc1C1=NNC(=O)/C1=N\Nc1ccc(N2CCOCC2)cc1 | 50 | 
COc1ccc(N/N=C2\C(=O)NN=C2c2ccccn2)cc1 | 640 | 
COc1ccc(N/N=C2\C(=O)NN=C2c2cccnc2)cc1 | 20 | 
COc1ccc(N/N=C2\C(=O)NN=C2c2ccncc2)cc1 | 30 | 
COc1ccc(N/N=C2\C(=O)NN=C2c2cccc(OC)c2)cc1 | 18 | 
COc1ccc(N/N=C2\C(=O)NN=C2c2ccc(OC)cc2)cc1 | 2 | 
COc1cccc(N/N=C2\C(=O)NN=C2c2cccc(OC)c2)c1 | 5 | 
COc1cccc(C2=NNC(=O)/C2=N\Nc2ccc(C#N)cc2)c1 | 4 | 
COc1cccc(C2=NNC(=O)/C2=N\Nc2ccccn2)c1 | 8 | 

Structure (SMILES) | Ki [1] [nM] | further results
COc1cccc(C2=NNC(=O)/C2=N\Nc2cccnc2)c1 | 30 | 
COc1ccc(N/N=C2\C(=O)NN=C2c2ccc(OC)c(OC)c2)cc1 | < 2 | 
COc1ccc(N/N=C2\C(=O)NN=C2c2cc(OC)c(OC)c(OC)c2)cc1 | 9 | 
COc1cccc(C2=NNC(=O)/C2=N\Nc2ccncc2)c1 | 23 | 
COc1cccc(C2=NNC(=O)/C2=N\Nc2ccc(C(=O)O)cc2)c1 | 6.5 | 
COc1ccc(C2=NNC(=O)/C2=N\Nc2ccc(N(C)C)cc2)cc1OC | 87 | 
CCN(CC)c1ccc(N/N=C2\C(=O)NN=C2c2ccc(OC)c(OC)c2)cc1 | 2 | 
COc1ccc(C2=NNC(=O)/C2=N\Nc2ccc(N3CCOCC3)cc2)cc1OC | 3 | 
COc1ccncc1C1=NNC(=O)/C1=N\Nc1ccccc1 | 4.5 | Ki [2]: 3500 nM; Ki [4]: 2500 nM; Ki [5]: > 4000 nM; Ki [6]: > 4000 nM; Ki [7]: > 4000 nM; Ki [8]: 290 nM; Ki [10]: 1000 nM; Ki [11]: 1100 nM; Ki [12]: > 4000 nM; Ki [13]: 540 nM; Ki [14]: 1800 nM
COc1ccc(C2=NNC(=O)/C2=N\Nc2ccc(C#N)cc2)cc1OC | < 2 | 
COc1ccc(C2=NNC(=O)/C2=N\Nc2cccnc2)cc1OC | < 3.5 | 
COc1ccc(C2=NNC(=O)/C2=N\Nc2ccncc2)cc1OC | < 3.5 | 
COc1ccc(C2=NNC(=O)/C2=N\Nc2cccc(Cl)c2)cc1OC | 0.4 | 
COc1ccc(C2=NNC(=O)/C2=N/Nc2ccc(Cl)cc2)cc1OC | < 2 | 
COc1ccncc1C1=NNC(=O)/C1=N\Nc1ccc(Cl)cc1 | 3 | 
COc1cccc(N/N=C2\C(=O)NN=C2c2ccc(OC)c(OC)c2)c1 | 0.4 | 
COc1ccccc1N/N=C1\C(=O)NN=C1c1cnccc1OC | 270 | 
COc1ccc(C2=NNC(=O)/C2=N\Nc2ccc(N3CCOCC3)cc2)cc1 | 8 | 
COc1ccc(C2=NNC(=O)/C2=N\Nc2ccccc2)cc1OC | < 3.5 | 
